# Columns and labels:
# human 12-lipoxygenase = target: T1, human 12-lipoxygenase (Homo sapiens, UniProt P18054); assay: human 12-lipoxygenase inhibition (12hLO) assay, absorbance at 234 nm; assay type: biochemical
# T1 sequence (P18054 1-663): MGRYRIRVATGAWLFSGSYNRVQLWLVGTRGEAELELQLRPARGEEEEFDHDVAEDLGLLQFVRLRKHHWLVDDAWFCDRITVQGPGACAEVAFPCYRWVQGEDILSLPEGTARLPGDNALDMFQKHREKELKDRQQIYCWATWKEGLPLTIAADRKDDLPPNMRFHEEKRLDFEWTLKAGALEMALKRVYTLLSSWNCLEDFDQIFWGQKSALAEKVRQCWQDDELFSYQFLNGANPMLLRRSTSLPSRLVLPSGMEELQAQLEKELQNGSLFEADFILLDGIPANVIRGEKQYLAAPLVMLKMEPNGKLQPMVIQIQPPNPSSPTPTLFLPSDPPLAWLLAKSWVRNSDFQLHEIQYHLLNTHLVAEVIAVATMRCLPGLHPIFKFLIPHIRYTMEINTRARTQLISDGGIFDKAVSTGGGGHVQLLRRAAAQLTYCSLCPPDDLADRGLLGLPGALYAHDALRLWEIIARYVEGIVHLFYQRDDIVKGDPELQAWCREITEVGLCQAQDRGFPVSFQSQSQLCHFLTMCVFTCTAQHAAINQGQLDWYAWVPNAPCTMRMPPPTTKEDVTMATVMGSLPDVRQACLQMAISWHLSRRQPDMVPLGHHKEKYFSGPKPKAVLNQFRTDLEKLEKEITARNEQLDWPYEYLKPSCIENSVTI
# human platelets = assay: dense granule secretion (ATP release) in washed platelets; assay type: cell-based; conditions: induced by thrombin, PAR1-AP, PAR4-AP, ADP, arachidonic acid, collagen; FIG. 3
# Method: Human platelets were obtained from healthy volunteers from within the Thomas Jefferson University community and the Philadelphia area. These studies were approved by the Thomas Jefferson University Institutional Review Board. Informed consent was obtained from all donors before blood draw. Blood was centrifuged at 200 g for 15 min at room temperature. Platelet-rich plasma was transferred into a conical tube containing a 10% acid citrate dextrose solution (39 mM citric acid, 75 mM sodium citrate, and 135 mM glucose, pH 7.4) and centrifuged at 2000 g for 15 min at room temperature. Platelets were resuspended in Tyrode's buffer (12 mM NaHCO3, 127 mM NaCl, 5 mM KCl, 0.5 mM NaH2PO4, 1 mM MgCl2, 5 mM glucose, and 10 mM HEPES), and the final platelet concentration was adjusted as indicated after counting using a Coulter counter (Beckman Coulter, Fullerton, Calif.). Reported results are the data obtained using platelets from at least three different subjects.
# Washed platelets were obtained as described in Example 10. […] After addition of 5 μl of Chrono-lume reagent (Chrono-log Corp., Havertown, Pa.), ATP release was measured in response to stimulation by the agonists thrombin, PAR1-AP, PAR4-AP, ADP, arachidonic acid, and collagen using a Lumi-aggregometer Model 700D (Chrono-log Corp., Havertown, Pa.) at 37° C. with stirring at 1100 rpm. […]
# Human islets = assay: gene expression in cytokine-stimulated human islets, Taqman real time PCR; assay type: cell-based; conditions: TNF-α
# Method: Human islets were incubated for 22 hours following stimulation with the inflammatory cytokines IFN-γ, TNF-α, and IL-1-β alone or in the presence of compound 1 or compound 9. Control islets were incubated for 22 hours in the absence of inflammatory cytokines or compounds. Following the incubation, gene expression for 12-LO, 15-LO, 5-LO, IL-12p40, and IFN-γ were determined using Taqman real time PCR.
# [1] = relative to control islets, IFN-γ, IL-1-β stimulation, 22 hours
structure (smiles),measurement,setting,value
"CCC(=O)NC(c1cccs1)c1cc([N+](=O)[O-])c2cccnc2c1O (stereo not shown) [Compound 1, N-((8-hydroxy-5-nitroquinolin-7-yl)(thiophen-2-yl)methyl)propionamide]","selectivity for inhibition of human 12-lipoxygenase as compared with human 5-lipoxygenase, 15-lipoxygenase-1 and 15-lipoxygenase-2",human 12-lipoxygenase,exhibited selectivity
same,IC50,"human 12-lipoxygenase; 12hLO Inhibition, Table 1, read-out: IC50 (μM) [± SD μM]",0.8 µM
same,ATP secretion (dense granule secretion),human platelets,substantially complete blockage of ATP secretion
same,reduction in IFN-γ expression,"Human islets; induced by IFN-γ, IL-1-β",4 fold
same,reduction in IL-12p40 mRNA expression,"Human islets; induced by IFN-γ, IL-1-β",40 fold
same,Change in Gene Expression 5-LO,Human islets; [1],1
same,Change in Gene Expression 12-LO,Human islets; [1],13
same,Change in Gene Expression 15-LO,Human islets; [1],1
same,Change in Gene Expression IFN-γ,Human islets; [1],25
same,Change in Gene Expression IL-12p40,Human islets; [1],3
